Assays:
[1] = Plasma pharmacokinetic parameters following intravenous (IV) or oral (PO) administration in rats; type: in vivo, Sprague-Dawley rats; conditions: rat
Protocol: (§1) Adult male Sprague-Dawley rats (230-250 g) (Charles River Labs, Hollister, CA) were utilized for the study. There were 2 rats/group. All animals were food fasted overnight with water provided ad libitum at all times. Compounds 1, 4, 14 and 19 were synthesized as described in Examples 2, 17, 7, and 12, respectively, and formulated in injectable water.
(§2) The morning of each dosing, individual doses were calculated based on current body weights on the day of dosing. The jugular vein cannula (JVC) and the carotid artery cannula (CAC) were externalized, flushed with HEP/saline (10 IU/mL HEP/mL saline), plugged, and labeled to identify the jugular vein and the carotid artery. The IV group animals were dosed at 0.5 mg/kg of Compound 1, 4, 14 or 19, respectively, intravenously via the jugular vein, while the PO dose was administered 2.5 mg/kg of Compound 1, 4, 14 or 19, respectively, orally via gavage. For the IV group, immediately following the dose of test article, the dead volume of the catheter was flushed with 0.9% saline to ensure the animals received the full dose.
Approximately 0.2 mL of blood was collected per time point from JVC. Blood samples were collected at 2 (IV group only), 5, 15, 30, 60, 120, 240, 360, 420 (Compound 19 only), 480, 720 (Compound 19 only), and 1440 minutes via the CAC and transferred immediately into K2EDTA coated tubes pre-loaded 2 μl with quenching cocktail and placed on wet ice. The samples were centrifuged within 30 min after collection at 10,000 RPM for 5 minutes and the resulting plasma was separated. Plasma was transferred into microfuge tubes and placed on dry ice immediately. The plasma samples were stored at approximately −70° C. until bioanalysis.
Plasma samples were extracted by protein precipitation with acetonitrile containing 0.1% formic acid and doxepin for Compound 1 (available from Sigma-Aldrich) or SCH58261 for Compounds 4, 14 and 19 (available from Sigma-Aldrich) as an internal standard. Following vortex and centrifugation, supernatant was diluted 3-fold with water containing 0.1% formic acid and analyzed by LC-MS/MS.
Pharmacokinetic parameters (PK) were determined by non-compartmental analysis (NCA) using Phoenix 64 WinNonlin (version 8) and Dotmatics (version 5.0). Nominal doses and time points were used for the analysis.
The following PK parameters were estimated using plasma concentration-time profile of each animal with the results presented in Table 3: • AUCinf Area under the concentration-time from zero to time infinity • AUClast Area under the concentration-time from zero to time of last concentration value • F Bioavailability • CL Total body clearance • Cmax Maximum (peak) concentration • MRTlast Mean residence time to last observable concentration • Tmax Time to reach maximum or peak concentration following administration • Vss Volume of distribution at steady state
as §1, with “Compound 1 was” for “Compounds 1, 4, 14 and 19 were”, “Example 2” for “Examples 2, 17, 7, and 12, respectively,”
as §2, with “1” for “1, 4, 14 or 19, respectively,”
Approximately 0.2 mL of blood was collected per time point from JVC. […]

[2] = Brain-to-plasma ratio (B/P) after administration; type: in vivo, Sprague-Dawley rats; conditions: Sprague-Dawley, rat, brain-to-plasma ratio at 1 h
Source text: A similar unexpected result was obtained when the phenyl ring present on Compound 1 was replaced with a halogen substituted pyridine. The halogen was previously introduced on the phenyl ring with the aim of blocking a possible metabolic soft-spot, with similar results observed as for Compound 1 in terms of exposure, clearance and bioavailability (Compound 10 and Compound 15). The substituted pyridine ring was designed to modulate the lipophilicity and polar surface area, as well as to address metabolic soft-spot concerns. Clearance and bioavailability parameters remain similar between substituted phenyl and pyridine (Compound 4 and Compound 14) analogs, which span a range in cLogP of 2.7-3.2. It was therefore surprising the significant improvement in exposure and clearance observed for the more lipophilic Compound 19. […] A compound is commonly deemed to be a brain penetrant if the brain-to-blood/plasma concentration ratio (B/P) is greater than 0.04 using methods as known in the art (Schaffer, Annual Reports in Medicinal Chemistry, 45:55-70, 2010).
Plasma pharmacokinetic parameters were determined following oral (PO) administration of further compounds essentially as described in Example 28 with the results shown in Table 6.

[3] = target: T1, A2A receptor (Homo sapiens, UniProt P29274); experiment: Radioligand receptor binding assay, A2A receptor; conditions: cell membranes overexpressing A2A receptor, read-out: Potency Ki A2A
T1 construct: purchased
Protocol: (§3) Using conventional receptor binding assay techniques, Compounds 1-24 were assayed to determine binding activity at the A2A, A1, and A3 receptors with the results shown in Table 7.
(§4) Receptor binding affinity of Compounds 1-24 was measured using radioligand binding assays using commercially obtained cell membranes prepared from cell lines overexpressing the A2A, A1, or A3 receptors. Briefly, cell membrane preparations from cells expressing the specific receptor were mixed with the appropriate [^3H]-labeled tracer for the specific receptor and the test compound or a known inhibitor of receptor-ligand binding. Following 60 min incubation at room temperature to allow receptor-ligand complex formation, the complexes were collected by filtration, washed with 50 mM Tris HCl (pH 7.5) to remove radioligand that was not receptor-bound, and the remaining radioactivity determined by liquid scintillation counting. Specific radioligand binding was calculated for each test compound concentration and IC50 values were determined by non-linear, regression analysis. Inhibition constants (Ki) were calculated using the equation of Cheng and Prusoff using the observed IC50 of the tested compound, the concentration of radioligand employed in the assay and the experimentally determined values for the Kd of the ligand.

[4] = target: T2, A1 receptor (Homo sapiens, UniProt P30542); experiment: Radioligand receptor binding assay, A1 receptor; conditions: cell membranes overexpressing A1 receptor, read-out: Potency Ki A1
T2 construct: purchased
T2 sequence (P30542 1-326): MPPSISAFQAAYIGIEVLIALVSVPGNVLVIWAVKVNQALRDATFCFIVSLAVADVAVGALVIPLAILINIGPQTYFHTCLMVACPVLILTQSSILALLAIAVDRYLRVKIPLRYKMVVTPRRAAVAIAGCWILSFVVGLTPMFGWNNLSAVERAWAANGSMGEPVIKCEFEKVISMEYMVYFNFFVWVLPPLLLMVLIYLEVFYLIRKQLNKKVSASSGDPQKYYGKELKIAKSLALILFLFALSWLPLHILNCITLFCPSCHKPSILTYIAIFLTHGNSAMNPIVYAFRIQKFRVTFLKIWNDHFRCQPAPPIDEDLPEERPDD
Protocol: as §3, §4

[5] = male, Sprague-Dawley, plasma, iv, 0.5 mg/kg, IV 0.5 mg/kg, injectable water
[6] = male, Sprague-Dawley, plasma, oral, 2.5 mg/kg, Table 2 summary of Example 27, values marked 1 are the average of experiments
[7] = male, Sprague-Dawley, plasma, po, 2.5 mg/kg, PO 2.5 mg/kg via gavage, injectable water
[8] = male, Sprague-Dawley, plasma, 2.5 mg/kg, Table 6, oral (PO) administration essentially as described in Example 28
[9] = male, Sprague-Dawley, plasma, intravenous, 0.5 mg/kg, Table 6, essentially as described in Example 28
[10] = male, Sprague-Dawley, plasma, po, 2.5 mg/kg, Table 6, oral (PO) administration essentially as described in Example 28

T1 sequence (P29274 whole entry): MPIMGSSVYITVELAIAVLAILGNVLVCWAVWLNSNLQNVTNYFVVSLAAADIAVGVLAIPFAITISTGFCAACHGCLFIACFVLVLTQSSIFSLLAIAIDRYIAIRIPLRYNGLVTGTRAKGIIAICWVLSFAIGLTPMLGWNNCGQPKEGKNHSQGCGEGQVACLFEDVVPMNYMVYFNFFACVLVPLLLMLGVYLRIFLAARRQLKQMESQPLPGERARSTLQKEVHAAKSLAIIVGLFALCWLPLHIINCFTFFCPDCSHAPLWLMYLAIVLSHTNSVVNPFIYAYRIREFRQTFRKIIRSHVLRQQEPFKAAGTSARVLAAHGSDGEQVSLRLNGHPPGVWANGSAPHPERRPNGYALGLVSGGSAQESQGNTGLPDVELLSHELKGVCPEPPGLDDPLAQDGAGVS

Row | Ki [3] [µM] | Ki [4] [µM] | AUC [1, 8] [ng·h/mL] | clearance [1, 9] [mL/min/kg] | bioavailability [1, 10] [%] | Kp at 1 h ([2]; oral, 2.5 mg/kg, Table 6) | Compound | further results
1 | 0.007 | 13 | 320 | 54 | 43 | 0.04 | COCCOc1ccc(N2CCN(CCN(C)c3nc(N)n4nc(-c5ncco5)nc4n3)CC2)cc1 [Compound 2, N^5-(2-{4-[4-(2-methoxyethoxy)phenyl]piperazin-1-yl}ethyl)-N^5-methyl-2-(1,3-oxazol-2-yl)[1,2,4]triazolo[1,5-a][1,3,5]triazine-5,7-diamine] | –
2 | 0.004 | > 4 | 1200 | 22 | 63 | 0.04 | [2H]C([2H])([2H])OCCOc1ccc(N2CCN(CCN(c3cc4nc(-c5ncco5)nn4c(N)n3)C([2H])([2H])[2H])CC2)cc1 [Compound 8, N^7-(^2H3)methyl-N^7-{2-[4-(4-{2-[(^2H3)methyloxy]ethoxy}phenyl)piperazin-1-yl]ethyl}-2-(1,3-oxazol-2-yl)[1,2,4]triazolo[1,5-c]pyrimidine-5,7-diamine] | –
3 | 0.013 | > 4 | 1020 | 24 | 60 | 0.07 | [2H]C([2H])([2H])OCCOc1ccc(N2CCN(CCN(C)c3cc4nc(-c5ncco5)nn4c(N)n3)CC2)cc1 [Compound 7, N^7-methyl-N^7-{2-[4-(4-{2-[(^2H3)methyloxy]ethoxy}phenyl)piperazin-1-yl]ethyl}-2-(1,3-oxazol-2-yl)[1,2,4]triazolo[1,5-c]pyrimidine-5,7-diamine] | –
4 | 0.0055 | > 10 | 819 | 30 | 57 | 0.09 | [2H]C([2H])([2H])OCCOc1ccc(N2CCN(CCN(C)c3cc4nc(-c5ncco5)nn4c(N)n3)CC2)c(F)c1 [Compound 10, N^7-{2-[4-(2-fluoro-4-{2-[(^2H3)methyloxy]ethoxy}phenyl)piperazin-1-yl]ethyl}-N^7-methyl-2-(1,3-oxazol-2-yl)[1,2,4]triazolo[1,5-c]pyrimidine-5,7-diamine] | –
5 | 0.01 | 20.1 | 376 | 47 | 44 | 0.04 | COCCOc1cnc(N2CCN(CCN(C)c3cc4nc(-c5ncco5)nn4c(N)n3)CC2)nc1 [Compound 3, N^7-(2-{4-[5-(2-methoxyethoxy)pyrimidin-2-yl]piperazin-1-yl}ethyl)-N^7-methyl-2-(1,3-oxazol-2-yl)[1,2,4]triazolo[1,5-c]pyrimidine-5,7-diamine] | –
6 | 0.007 | > 10 | 971 | 21 | 48 | 0.1 | CN(CCN1CCN(c2ccc(OCCOC(F)(F)F)cc2)CC1)c1cc2nc(-c3ncco3)nn2c(N)n1 [Compound 5, N^7-methyl-2-(1,3-oxazol-2-yl)-N^7-[2-(4-{4-[2-(trifluoromethoxy)ethoxy]phenyl}piperazin-1-yl)ethyl][1,2,4]triazolo[1,5-c]pyrimidine-5,7-diamine] | –
7 | 0.008 | > 100 | 900 | 33 | 71 | 0.09 | [2H]C([2H])([2H])OC([2H])([2H])C([2H])([2H])Oc1ccc(N2CCN(CCN(c3cc4nc(-c5ncco5)nn4c(N)n3)C([2H])([2H])[2H])CC2)cc1 [Compound 18, N^7-(^2H3)methyl-N^7-(2-{4-[4-({2-[(^2H3)methyloxy](^2H4)ethyl}oxy)phenyl]piperazin-1-yl}ethyl)-2-(1,3-oxazol-2-yl)[1,2,4]triazolo[1,5-c]pyrimidine-5,7-diamine] | –

Row | Compound | Ki [3] [µM] | Ki [4] [µM] | AUC [1, 8] [ng·h/mL] | clearance [1, 9] [mL/min/kg] | bioavailability [1, 10] [%] | Kp at 1 h ([2]; oral, 2.5 mg/kg, Table 6) | further results
8 | COCCOc1cnc(N2CCN(CCN(C)c3cc4nc(-c5ncco5)nn4c(N)n3)CC2)c(Cl)c1 [Compound 14, N^7-(2-{4-[3-chloro-5-(2-methoxyethoxy)pyridin-2-yl]piperazin-1-yl}ethyl)-N^7-methyl-2-(1,3-oxazol-2-yl)[1,2,4]triazolo[1,5-c]pyrimidine-5,7-diamine] | 0.004 | 15 | – | – | – | – | clearance ([1]; male, Sprague-Dawley, plasma, intravenous, 0.5 mg/kg, Table 2 summary of Example 27, values marked 1 are the average of experiments): 17 mL/min/kg; AUC(0-inf) [1, 5]: 526 ng·h/mL; AUC(0-t) [1, 5]: 523 ng·h/mL; MRT last [1, 5]: 0.977 h; clearance [1, 5]: 16.6 mL/min/kg; Vd ([1]; male, Sprague-Dawley, plasma, iv, 0.5 mg/kg, IV 0.5 mg/kg, injectable water, read-out: Vss obs): 1.02 L/kg; AUC [1, 6]: 1480 ng·h/mL; bioavailability [1, 6]: 56%; AUC(0-inf) [1, 7]: 1480 ng·h/mL; AUC(0-t) [1, 7]: 1370 ng·h/mL; MRT last [1, 7]: 2.43 h; Cmax ([1]; male, Sprague-Dawley, plasma, po, 2.5 mg/kg, PO 2.5 mg/kg via gavage, injectable water, read-out: Cmax): 373 ng/mL; Tmax ([1]; male, Sprague-Dawley, plasma, po, 2.5 mg/kg, PO 2.5 mg/kg via gavage, injectable water, read-out: Tmax): 1 h; Total clearance as % liver blood flow ([1]; IV): ~28 % liver blood flow; F ([1]; PO 2.5 mg/kg vs IV 0.5 mg/kg): 56.1%; Kp at 1 h ([2]; Table 2): 0.025
